Legend:
CerS5 [1] = target: T1, CerS5 (Homo sapiens (Human), UniProt Q8N5B7); assay: N-acylation by CerS5 using labeled palmitoyl CoA, relative to sphinganine; type: biochemical; conditions: for N-Acylation using 14C labeled palmitoyl CoA: Yes/No, CerS5; for Rate of N-Acylation (either pmol/mg/min or % of control): unit not given; for Rate of N-Acylation (either pmol/mg/min or % of control) / Rate of N-Acylation: CerS5, labeled palmitoyl CoA; for Rate of N-Acylation: n=1-2; for Rate of N-Acylation (% of control): control sphinganine = 100% acylation
Method: (§1) N-acylation was determined by incubating homogenates with 15 μM dhSo, 20 μM defatted BSA and 0.01 uCi C16-[14C] acyl-CoA/46 μM C16 acyl-CoA in a final volume of 250 μl.
An additional assay determined whether the sphingosine analogs presented herein are N-acylated by CerS5 expressed, relative to sphinganine (control; 100% acylation), using labeled palmitoyl CoA (n=1-2).

P. aeruginosa strain 762 = P. aeruginosa strain 762 killing assay; type: cell-based; conditions: Pseudomonas aeruginosa; P. aeruginosa strain 762, 2 hours at 37° C., colonies counted
Method: Incubation of bacteria with the sphingosine analogs presented herein was carried out as follows. P. aeruginosa strain 762 was grown in LB medium at 37° C. until the early logarithmic phase (OD550 of 0.2). Bacteria were diluted in PBS (without Ca^+2 and Mg^+2) to a concentration of 5×10^3 CFU/ml. Stock solutions of sphingolipid analogs in 5 mM in 7.5% n-octyl-β-D-glucopyranoside (OGP) or in dimethyl sulfoxide (DMSO) were prepared by sonication and warming to 40° C. The sphingosine analogs presented herein were added to the bacteria (0.05-200 μM in 0.075% OGP or 1% DMSO). Bacteria were incubated with the sphingosine analogs presented herein for 2 hours at 37° C., and 200 μl of a bacteria solution plated on LB agar plates, incubated overnight at 37° C., and colonies counted.
The ability of the sphingo sine analogs presented herein to kill Pseudomonas aeruginosa in vitro, and based on the data shown below, concluded that the SPH analogs presented herein are highly efficient in killing bacteria. Compounds 791598 and 791577 were used as activity assay control references.
FIGS. 1A-D present comparative plots, showing the results of the P. aeruginosa strain 762 killing assay, conducted for sphingosine analogs presented herein.

[2] = tested on: ceramide synthases (CerS); assay: N-acylation by ceramide synthases using 14C labeled CoA; type: biochemical; conditions: 14C labeled CoA as a substrate; raw data not shown
Method: as §1
To determine whether the sphingosine analogs presented herein can be metabolized by ceramide synthases (CerS—natural sphingosine is a substrate for CerS), their N-acylation using ^14C labeled CoA as a substrate was examined.

CerS5 [3] = target: T1, CerS5; assay: CerS5 activity/inhibition assay using NBD sphinganine; type: biochemical; conditions: read-out: CerS5 activity (percentage of control); for remaining activity at 25 µM: 25 μM compound; for remaining activity at 50 µM: 50 μM compound; for remaining activity at 75 µM: 75 μM compound
Method: (§2) Ceramide synthase assays were carried out as follows. Cell homogenates were incubated with 15 μM NBD-SPH, 20 μM defatted bovine serum albumin, and 50 μM fatty acyl CoA in a 20 μl reaction volume at 37° C. Reactions were terminated by addition of chloroform/methanol (1:2, v/v) and lipids extracted. Lipids were dried under N2, re-suspended in chloroform/methanol (9:1, v/v) and separated by TLC using chloroform/methanol/2M NH4OH (40:10:1, v/v/v) as the developing solvent. NBD-labelled lipids were visualized using a Typhoon 9410 variable mode imager and quantified by ImageQuantTL (GE Healthcare, Chalfont St Giles, UK).
Table 4 below presents the results for the CerS5 activity/inhibition assay using NBD sphinganine (given as percentage of control).

P. aeruginosa = conditions: injected immediately prior to infection, or an hour after infection; cited from earlier work
CerS5 [4] = target: T1, CerS5; assay: Inhibition of ceramide synthesis (CerS5) measured in vitro; type: biochemical
Method: as §2

T1 sequence (Q8N5B7 whole entry, species assumed): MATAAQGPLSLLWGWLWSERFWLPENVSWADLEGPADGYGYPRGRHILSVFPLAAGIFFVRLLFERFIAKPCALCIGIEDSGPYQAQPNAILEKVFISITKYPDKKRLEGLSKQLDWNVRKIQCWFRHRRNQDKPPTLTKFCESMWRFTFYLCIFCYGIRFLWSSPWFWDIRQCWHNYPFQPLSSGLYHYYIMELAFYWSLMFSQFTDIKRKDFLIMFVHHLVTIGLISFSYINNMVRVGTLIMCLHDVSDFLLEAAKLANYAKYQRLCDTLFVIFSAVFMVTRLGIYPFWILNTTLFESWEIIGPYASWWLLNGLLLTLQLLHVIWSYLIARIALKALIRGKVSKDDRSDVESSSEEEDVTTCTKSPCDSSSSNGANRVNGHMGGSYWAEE

Row | SMILES | N-Acylation using 14C labeled palmitoyl CoA (CerS5 [1]) | Rate of N-Acylation (either pmol/mg/min or % of control) (CerS5 [1]) | EC50 (P. aeruginosa strain 762) [µM] | N-acylation by CerS (substrate or not) [2] | remaining activity at 25 µM (CerS5 [3]) [%] | remaining activity at 50 µM (CerS5 [3]) [%] | remaining activity at 75 µM (CerS5 [3]) [%] | P. aeruginosa infection in CF mice (P. aeruginosa) | Rate of N-Acylation (CerS5 [1]) [pmol/mg/min] | Rate of N-Acylation (% of control) (CerS5 [1]) | CerS5 activity (% of control) (CerS5 [4])
1 | CCCCCCCCCCCCc1ccc(NC(=O)[C@H](N)CN)cc1 [Compound 791996] | No | 0.02 ± 0.003 pmol/mg/min or % of control | 0.81 ± 0.24 | not substrates for CerS | 96.7 ± 12.8 | 104 ± 21.2 | 105 ± 13.9 | – | – | – | –
2 | CCCCCCCCCCCCC/C=C/[C@@H](O)[C@@H](N)CO [sphingosine] | – | – | – | – | – | – | – | completely blocked | – | – | –
3 | CCCCCCCCCCCCCCC[C@H](O)[C@H](CN)N(C)C [Compound 791578] | No | – | 1.44 ± 0.76 | – | – | – | – | – | 55.0 ± 6.0 | (10.39% of control) | 90.2 ± 16.4 % of control
4 | CCCCCCCCCCCCCCC[C@@H](N)[C@H](CN)N(C)C [Compound 791579] | No | – | 0.58 ± 0.14 | – | – | – | – | – | 4.1 ± 3.0 | (0.77% of control) | 69.2 ± 8.9 % of control
5 | CCCCCCCCCCCCCCNC(=O)[C@@H](N)CN [Compound 791994] | Yes | 25.42 ± 6.97 pmol/mg/min or % of control | 1.31 ± 0.4 | – | – | – | – | – | – | – | –
6 | CCCCCCCCCCCCCCC[C@H](N)[C@H](N)CN [Compound 791598] | No | – | 0.99 ± 0.01 | – | – | – | – | – | 10.4 ± 10.1 | (1.97% of control) | 111.3 ± 34.9 % of control
7 | CCCCCCCCCCCCc1ccc(NC(=O)[C@@H](N)CN)cc1 [Compound 791995] | No | 0.14 ± 0.004 pmol/mg/min or % of control | 0.87 ± 0.091 | not substrates for CerS | 107 ± 24 | 119 ± 20.9 | 109 ± 26.9 | – | – | – | –
8 | CCCCCCCCCCCCCCNC(=O)[C@H](N)CN [Compound 791993] | – | 0.98 ± 0.09 pmol/mg/min or % of control | 0.94 ± 0.322 | – | – | – | – | – | – | – | –
9 | CCCCCCCCCCCCCCC[C@H](O)[C@H](CO)N(C)C [Compound 791577] | No | – | > 2.5 | – | – | – | – | – | 4.7 ± 2.4 | (0.89% of control) | 92.9 ± 28.7 % of control
10 | CCCCCCCCCCCCCCC[C@@H](O)[C@H](N)CN [Compound 791597] | No | – | 0.89 ± 0.23 | – | – | – | – | – | 18.8 ± 12.3 | (3.55% of control) | 125.0 ± 31.1 % of control
11 | CCCCCCCCCCCCCCCCNC(=O)C(N)CN (centres unmarked) [Compound 792208] | – | 2.81 ± 1.06 pmol/mg/min or % of control | 0.72 ± 0.26 | – | 114 ± 21.4 | 81.9 ± 7.15 | 72.7 ± 5.76 | – | – | – | –
12 | CCCCCCCCCCCCc1ccc(NC(=O)[C@@H](N)CCN)cc1 [Compound 792212] | No | 2.77 ± 0.65 pmol/mg/min or % of control | 0.16 ± 0.07 | – | 163 ± 82.3 | 138 ± 59 | 119 ± 32.8 | – | – | – | –
13 | CCCCCCCCCCCCCCCCCCNC(=O)C(N)CN (centres unmarked) [Compound 792209] | No | – | > 2.5 | – | – | – | – | – | – | – | –
14 | CCCCCCCCCCCCCCCCc1ccc(NC(=O)[C@@H](N)CN)cc1 [Compound 792206] | No | 3.78 ± 0.24 pmol/mg/min or % of control | 1.12 ± 0.18 | – | 76.6 ± 12.8 | – | 125 ± 37.4 | – | – | – | –
15 | CCCCCCCCCCCCc1ccc(NC(=O)C(O)CN)cc1 (centres unmarked) [Compound 792211] | Yes | 114.21 ± 3.11 pmol/mg/min or % of control | 0.26 ± 0.09 | – | 163 ± 37.9 | 73.5 ± 8.98 | 49.8 ± 26.6 | – | – | – | –
16 | CCCCCCCCc1ccc(CCC(N)(CO)CO)cc1 [FTY720, fingolimod] | – | – | – | – | – | – | – | completely blocked | – | – | –
17 | CCCCCCCCCCCCCCC[C@@H](O)[C@@H](N)CO [sphinganine, reference compound] | – | – | – | – | – | – | – | – | – | – | 100 ± 0 % of control
18 | CCCCCCCCCCCCCCC[C@H](N)[C@H](CN)N(C)C [Compound 791580] | No | – | 0.39 ± 0.06 | – | – | – | – | – | 6.1 ± 2.6 | (1.15% of control) | 58.1 ± 20.1 % of control
19 | CCCCCCCCCC/C=C/CCC(N)(O)CO (centres unmarked) [Compound 791581] | No | – | 1.09 ± 0.31 | – | – | – | – | – | 4.2 ± 4.5 | (0.79% of control) | 71.5 ± 19.0 % of control
20 | CCCCCCCCCCCCCCc1ccc(NC(=O)C(N)CN)cc1 (centres unmarked) [Compound 792205] | No | 5.21 ± 1.33 pmol/mg/min or % of control | 0.61 ± 0.2 | – | 98.5 ± 18.1 | 92.7 ± 19 | 59.4 ± 12.1 | – | – | – | –
21 | CCCCC/C=C\C/C=C\CCCCCCCC[C@H](O)[C@@H](N)CO [Compound 791602] | Yes | – | – | – | – | – | – | – | 146.9 ± 0.0 | (27.76% of control) | 57.3 ± 12.2 % of control
22 | CCCCCCCC/C=C\CCCCCCCC[C@@H](O)[C@H](N)CO [Compound 791601] | Yes | – | 0.42 ± 0.05 | – | – | – | – | – | 144.6 ± 51.7 | (27.32% of control) | 88.5 ± 10.1 % of control
23 | CCCCCCCCCC/C=C/CCC(N)(N)CN [Compound 791582] | No | – | 0.54 ± 0.18 | – | – | – | – | – | 14.4 ± 7.7 | (2.72% of control) | 68.2 ± 10.4 % of control

Reference: US11471430B2, “Sphingosine analogs and use thereof against bacterial lung infections” (Yeda Research and Development Co. Ltd., priority 2018, dated 2022)
